Laboratory results published in paper PMC8341910, “Structural and biophysical insights into the mode of covalent binding of rationally designed potent BMX inhibitors” (RSC Chemical Biology, 2020).
≈ marks a conversion by molar mass, not a printed value. Like-named read-outs stand apart in the source and are kept apart here.

Columns and labels:
[1] = Dynamic light scattering, colloidal aggregation; format: physicochemical; details: measured at 10 µM, 1 µM and 100 nM; water, 25 °C; read-out: DLS maximum soluble concentration at which no aggregates are observed
Protocol: In addition, we measured particle sizes by using dynamic light scattering (DLS).
DLS is measured at 10 µM, 1µM and 100 nM. The maximum soluble
concentration – at which no aggregates are observed - is indicated and the colour code indicates
Dynamic Light Scattering:
Dynamic light scattering (Zetasizer Nano S, Malvern, UK) was used to determine compound colloidal aggregation. […] A 10 mM stock solution of
test compounds was prepared in DMSO, following dilution to deionized and filtered water to
obtain an analyte solution of 10 μM (0.1% DMSO). Colloidal aggregation was measured
through sequential dilutions at 10 μM, 1 μM and 0.1 μM.

[2] = target: T1, recombinant human BMX protein (hBMX) (Homo sapiens, UniProt P51813); experiment: Differential scanning fluorimetry (DSF); format: binding; details: 100 μM compound; for ΔTm: versus apo-BMX; for Average Tm of BMX with compound: apo-BMX Tm 51.8-52.2 °C
T1 construct: Crystallization, data collection, and structure determination of BMX catalytic domain in; made in house; host or cells: Sf-9 insect cells
Protocol: We further characterized the binding interaction between JS24–JS27 and BMX by using differential scanning fluorimetry (DSF) and surface plasmon resonance (SPR). Purified recombinant human BMX protein (hBMX) was first subjected to thermal scanning in the absence and presence of JS24–JS27, and the respective protein melting temperature (Tm) calculated.
Differential Scanning Fluorimetry:
DSF was performed in MicroAmp™ EnduraPlate™ Optical 96 -Well Clear Reaction Plates
with Barcode (Applied Biosystems, Life Technologies, California, USA) using a QuantStudio
7 Flex Real-Time PCR System (Applied Biosystems). Pre-incubation of the protein with the
compound for 2 hours at 4 °C was required prior to DSF experiments. The final reaction mixture
(20 μL of total volume) contained 4 μg of His6-BMX, 4-fold of Protein Thermal Shift™ Dye
(Applied Biosystems) diluted in protein buffer solution, and 100 μM of compound. The
temperatures were obtained by taking the midpoint of each transition.

[3] = pH 6.8
Description: For assessment of drug permeability, we relied on parallel artificial membrane permeability assay (PAMPA) performed at Pion Inc. with the PAMPA Evolution™ instrument (Table S1, ESI ^†).
methods (ESOL model1 and Ali et al.2) PAMPA: Pe is effective permeability (x10-6 cm/sec)
measured directly from assay at pH 6.8 and %R is membrane retention.
as the average of quadruplicates. Und label refers to compounds with extremely low solubility
for which UV limits were below the detection limits therefore considered undetected.
Compounds were labelled as high permeability (green), medium permeability (orange) or low
Artificial Membrane Permeability (PAMPA):
The PAMPA Evolution™ instrument was used to determine permeability, at Pion Inc. In
PAMPA, a sandwich is formed such that each composite well is divided into two chambers,
measured at pH 6.8 in the donor compartment using low-binding, low UV Prisma buffer. The
drug-free acceptor compartment was filled with acceptor sink buffer containing a scavenger at
the start of the test. The proprietary scavenger mimics serum proteins and blood circulation,
thus creating sink conditions. Aqueous solutions of studied compounds are prepared by diluting
and thoroughly mixing 3 µL of DMSO stock in 600 µL of Prisma HT buffer. Final
concentration of organic solvent (DMSO) in aqueous buffer is ≤ 0.5% (v/v). The reference
solution is identical to the donor at time zero, so that any surface adsorption effects from the
plastic ware is compensated. The PAMPA sandwich was assembled and allowed to incubate
for ~15 hours. The solutions in the donor compartment were un-stirred within duration of the
experiment. Thus, the thickness of the aqueous boundary layer expected to be about 1000 µm.
The sandwich was then separated, and both the donor and receiver compartments were assayed
for the amount of drug present by comparison with the UV spectrum obtained from reference

BMX = target: T2, BMX (Homo sapiens, UniProt P51813); experiment: BMX biochemical activity assay (HTRF, phosphorylation of a biotinylated peptide); details: for IC50: read-out: BMX IC50
T2 sequence (P51813 1-675): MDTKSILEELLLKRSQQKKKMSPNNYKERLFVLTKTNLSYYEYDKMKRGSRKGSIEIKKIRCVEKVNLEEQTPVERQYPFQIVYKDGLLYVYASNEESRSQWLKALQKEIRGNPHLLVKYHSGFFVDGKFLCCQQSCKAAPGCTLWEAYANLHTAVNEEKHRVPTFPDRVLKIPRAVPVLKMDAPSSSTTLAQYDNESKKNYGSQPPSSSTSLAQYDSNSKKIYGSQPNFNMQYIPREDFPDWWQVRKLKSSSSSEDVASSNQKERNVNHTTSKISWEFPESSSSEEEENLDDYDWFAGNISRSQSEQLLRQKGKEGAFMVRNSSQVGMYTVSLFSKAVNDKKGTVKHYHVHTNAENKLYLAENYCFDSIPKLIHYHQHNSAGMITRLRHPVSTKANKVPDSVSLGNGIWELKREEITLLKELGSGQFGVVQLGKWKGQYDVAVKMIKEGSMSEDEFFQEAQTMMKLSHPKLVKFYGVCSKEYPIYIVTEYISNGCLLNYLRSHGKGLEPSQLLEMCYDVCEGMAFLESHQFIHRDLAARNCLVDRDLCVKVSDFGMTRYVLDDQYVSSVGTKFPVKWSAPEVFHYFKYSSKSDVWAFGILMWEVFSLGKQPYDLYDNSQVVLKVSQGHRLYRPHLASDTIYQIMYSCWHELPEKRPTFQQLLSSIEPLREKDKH

[4] = Experiment 1 of Fig. S3, control JS9A (in-house BMX-IN-1)
[5] = relative to the control of the same set of experiments
[6] = Experiment 2 of Fig. S3, control commercial BMX-IN-1
[7] = Experiment 3 of Fig. S3, control commercial BMX-IN-1

Row | Compound | solubility [1] | ΔTm [2] | Average Tm of BMX with compound [2] | PAMPA/%R membrane retention [3] | PAMPA/Pe effective permeability [3] | IC50 (BMX; [4]) | BMX potency gain (fold) against BMX-IN-1 (BMX; [5]) | BMX potency loss (fold) against control BMX-IN-1 (BMX; [5]) | IC50 (BMX; [6]) | IC50 (BMX; [7])
1 | Cc1ccc(-n2c(=O)ccc3cnc4ccc(-c5ccc(NS(C)(=O)=O)cc5)cc4c32)cc1NCC=CC#N (mixture of isomers) [JS12] | 0.1 µM | 0.13±0.06 °C | 52.05±0.06 °C | 39±2% | 45±3 x10-6 cm/sec |  |  |  |  | 
2 | COC(=O)C=CCNc1cc(-n2c(=O)ccc3cnc4ccc(-c5ccc(NS(C)(=O)=O)cc5)cc4c32)ccc1C (mixture of isomers) [JS13] | 0.1 µM | 0.52±0.06 °C | 52.44±0.06 °C | 30±16% | 45±9 x10-6 cm/sec |  |  |  |  | 
3 | C=CC(=O)Nc1cccc(-n2c(=O)ccc3cnc4ccc(-c5ccc(NS(C)(=O)=O)cc5)cc4c32)c1 [JS9D] | 1 µM (≈ 0.511 µg/mL) | 7.74±0.01 °C | 59.66±0.01 °C | 48±3% | 11±1 x10-6 cm/sec | 59 ± 5 nM | 6 fold |  |  | 
4 | C=CC(=O)Nc1cc(-n2c(=O)ccc3cnc4ccc(-c5ccc(NS(C)(=O)=O)cc5)cc4c32)ccc1OC [JS9E] | 1 µM (≈ 0.541 µg/mL) | 6.05±0.01 °C | 57.97±0.01 °C | 55±8% | 40±5 x10-6 cm/sec | 1300 ± 206 nM |  | 4 fold |  | 
5 | C=CC(=O)Nc1cc(-n2c(=O)ccc3cnc4ccc(-c5ccc(NS(=O)(=O)CCCC)cc5)cc4c32)ccc1C [JS14] | 0.1 µM (≈ 0.0567 µg/mL) | 7.61±0.11 °C | 59.53±0.11 °C |  | Und |  |  |  | 890 ± 27 nM | 
6 | C=CC(=O)Nc1cc(-n2c(=O)ccc3cnc4ccc(-c5cccc(NS(C)(=O)=O)c5)cc4c32)ccc1C [JS15] | 1 µM (≈ 0.525 µg/mL) | 8.79±0.28 °C | 60.72±0.28 °C | 17±24% | 30±18 x10-6 cm/sec |  |  |  |  | 119 ± 11.4 nM
7 | C=CC(=O)Nc1cc(-n2c(=O)ccc3cnc4ccc(-c5ccncc5)cc4c32)ccc1C [JS17] |  | 7.62±0.01 °C | 59.55±0.01 °C | 10±3% | 24±1 x10-6 cm/sec |  |  |  | 45 ± 10 nM | 
8 | C=CC(=O)Nc1cc(-n2c(=O)ccc3cnc4ccc(-c5ccc(C#N)nc5)cc4c32)ccc1C [JS18] | < 0.1 µM | 7.49±0.11 °C | 59.42±0.11 °C | 18±5% | 24±2 x10-6 cm/sec |  |  |  | 140 ± 12 nM | 
9 | C=CC(=O)Nc1cc(-n2c(=O)ccc3cnc4ccc(N5CCCCC5)cc4c32)ccc1C [JS20] |  | 7.36±0.11 °C | 59.29±0.11 °C | 18±1% | 30±2 x10-6 cm/sec |  |  |  | 42 ± 13 nM | 
10 | C=CC(=O)Nc1cc(-n2c(=O)ccc3cnc4ccc(N5CCOCC5)cc4c32)ccc1C [JS21] |  | 8.57±0.06 °C | 60.50±0.06 °C | 19±3% | 22±1 x10-6 cm/sec |  |  |  | 43 ± 5 nM | 
11 | C=CC(=O)Nc1cc(-n2c(=O)ccc3cnc4ccc(N5CCN(S(C)(=O)=O)CC5)cc4c32)ccc1C [JS22] |  | 8.79±0.21 °C | 60.72±0.21 °C | 19±6% | 18±1 x10-6 cm/sec |  |  |  |  | 93.8 ± 0.87 nM
12 | C=CC(=O)Nc1cc(-n2c(=O)ccc3cnc4ccc(N5CCC(N(C)C)CC5)cc4c32)ccc1C [JS23] |  | 8.66±0.11 °C | 60.59±0.11 °C | 39±5% | 2.2±0.2 x10-6 cm/sec |  |  |  | 41 ± 6 nM | 
13 | C=CC(=O)Nc1cc(-n2c(=O)ccc3cnc4ccc(Br)cc4c32)ccc1C [JS29] |  |  |  | 1±1% | 32±4 x10-6 cm/sec |  |  |  | 44 ± 2 nM | 
